Laboratory results: US20190375786A1, “STABLE PEPTIDES AND METHODS OF USE THEREOF” (Fred Hutchinson Cancer Research Center, priority 2016, published 2019)
Positions of bridges follow the written chain, without caps; N, C: chain ends. Residues, ends and D or L forms follow the SMILES beside them.

Assays:
[1] = Resistance to reduction by DTT, RP-HPLC; assay type: physicochemical; settings: 10 mM DTT in PBS, room temperature, 30 minutes; HPLC peak vs untreated peptide
Description: Peptides were first suspended in 500 ul of ddH2O to a stock concentration of 2 mg/ml. Reactions were prepared by adding 12.5 ug of peptide from the stock solution to a 10 mM solution of DTT in PBS and allowed to incubate at room temperature for 30 minutes. Other reactions were prepared with 12.5 μg peptide with or without 500 U/ml pepsin in simulated gastric fluid (SGF; pH 1.05; […] sodium chloride in 0.7% (v/v) hydrochloric acid) and were incubated for 30 minutes at 37.5° C. Some reactions were quenched with a final concentration of 100 mM Tris base and 10 mM dithiothreitol (DTT). Some reactions were performed in all of the above components, including simulated gastric fluid, pepsin, Tris, and DTT (referred to as SPTD). Reversed phase HPLC (RP-HPLC) was run on samples using an Agilent 1260 HPLC equipped with a C-18 Poroshell 120B column. Sample were analyzed by a gradient method with a mobile phase of Solvent A (water with 0.1% TFA) and Solvent B (acetonitrile with 0.1% TFA). Solvent B was ramped up from 5%-45% of the mobile phase over a period of 10 minutes. Peptides were detected at an absorbance of 214 nm and 280 nm.
Peptides were first suspended in 500 μl of ddH2O to a stock concentration of 2 mg/ml. Reactions were prepared by adding 12.5 μg of peptide from the stock solution to a 10 mM solution of DTT in PBS and allowed to incubate at room temperature for 30 minutes. Other reactions were prepared with 12.5 μg peptide and 500 U/ml trypsin in 25 mM Tris/75 mM NaCl buffer (pH 7.0) and incubated for 30 minutes at 37.5° C. These reactions were then quenched with 5 μg of soybean trypsin inhibitor (I) and, in some cases, 10 mM dithiothreitol (DTT). Reversed phase HPLC (RP-HPLC) was run on samples using an Agilent 1260 HPLC equipped with a C-18 Poroshell 120B column. Sample were analyzed by a gradient method with a mobile phase of Solvent A (water with 0.1% TFA) and Solvent B (acetonitrile with 0.1% TFA). Solvent B was ramped up from 5%-45% of the mobile phase over a period of 10 minutes. For testing pepsin digestion resistance, reactions were prepared with 12.5 μg peptide with or without 500 U/ml pepsin in simulated gastric fluid (SGF; pH 1.05; […] sodium chloride in 0.7% (v/v) hydrochloric acid) and were incubated for 30 minutes at 37.5° C. For testing temperature resistance, peptides were incubated at 70° C., 75° C., or 100° C. for one hour in 0.5 mM PBS, pelleted, and then the supernatant was analyzed by HPLC.
This example illustrates peptide stability in biological conditions including in the presence of reducing agents, proteases, oxidative conditions, acidic conditions, and simulated gastric fluids. […] Various peptides were suspended in 500 μl of ddH2O at a stock concentration of 2 mg/ml. This was then diluted in accord with the reaction conditions to prevent adverse buffering effects. Reactions were prepared with 12.5 μg peptide dissolved in solution and, in some samples, additionally suspended in a 10 mM solution of DTT, simulated gastric fluid (pH 1.05; […] sodium chloride in 0.7% (v/v) hydrochloric acid), 500 U pepsin (5000 U/ml pepsin), 50 U trypsin (500 U/ml trypsin) with 1 mg/ml inhibitor in PBS, or a combination of any of these conditions. All protease reactions were incubated for 30 min at room temperature and then quenched. Pepsin reactions were quenched by adding Tris base to a final concentration of 0.075 M. Trypsin reactions were quenched by adding excess soybean trypsin inhibitor. RP-HPLC was then run on samples using an Agilent 1260 HPLC equipped with a C-18 Poroshell 120B column. Sample were analyzed by a gradient method with a mobile phase of Solvent A (water with 0.1% TFA) and Solvent B (acetonitrile with 0.1% TFA). Solvent B was ramped up from 5%-45% of the mobile phase over a period of 10 minutes.
FIG. 18 illustrates high performance liquid chromatograph (HPLC) traces of peptides in non-reducing (NR) conditions (solid trace) or in 10 mM DTT reducing (R) conditions (dashed trace). […]

trypsin = trypsin (Sus scrofa, UniProt P00761); assay: Trypsin digestion resistance of soluble peptide, RP-HPLC; assay type: in vitro ADME, porcine; parameters: purchased Sigma Aldrich 6567; settings: 500 U/ml trypsin, 30 minutes at 37.5° C.; HPLC peak vs untreated peptide
In short: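 12.5 μg soluble peptide digested with 500 U/ml porcine trypsin in PBS, 30 min at 37.5° C; quenched with soybean trypsin inhibitor, with or without 10 mM DTT reduction afterwards. Intact peptide assessed by C-18 RP-HPLC, 5-45% acetonitrile/0.1% TFA gradient over 10 min.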

pepsin = pepsin (Sus scrofa, UniProt P00791); assay: Pepsin digestion resistance in simulated gastric fluid, RP-HPLC; assay type: in vitro ADME, porcine; parameters: purchased Sigma Aldrich P7012; settings: 500 U/ml pepsin in SGF pH 1.05, 30 minutes at 37.5° C.; HPLC peak vs untreated peptide
In short: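 Peptide (12.5 μg) incubated 30 min at 37.5 °C with or without 500 U/ml pepsin in simulated gastric fluid (pH 1.05; 2% NaCl in 0.7% HCl); some reactions quenched with 100 mM Tris and 10 mM DTT. Intact peptide followed by C-18 RP-HPLC (5–45% acetonitrile/0.1% TFA over 10 min) at 214 and 280 nm.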

pepsin, sequence (P00791 60-385): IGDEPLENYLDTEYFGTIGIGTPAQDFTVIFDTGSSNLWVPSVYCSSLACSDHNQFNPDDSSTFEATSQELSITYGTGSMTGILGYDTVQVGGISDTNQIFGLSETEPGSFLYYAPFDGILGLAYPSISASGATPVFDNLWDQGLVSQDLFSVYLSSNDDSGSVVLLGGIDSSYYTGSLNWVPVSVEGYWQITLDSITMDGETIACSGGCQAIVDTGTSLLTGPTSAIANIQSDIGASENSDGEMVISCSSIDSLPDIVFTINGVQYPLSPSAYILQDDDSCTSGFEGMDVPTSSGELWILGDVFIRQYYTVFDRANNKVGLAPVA
trypsin, sequence (P00761 9-231): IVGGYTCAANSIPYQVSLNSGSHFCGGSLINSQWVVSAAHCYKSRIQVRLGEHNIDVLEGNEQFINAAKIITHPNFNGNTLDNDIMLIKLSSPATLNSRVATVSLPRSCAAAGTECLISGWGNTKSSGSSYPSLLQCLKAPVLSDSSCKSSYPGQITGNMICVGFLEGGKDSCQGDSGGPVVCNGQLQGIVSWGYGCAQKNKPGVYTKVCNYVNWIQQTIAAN

| Compound | Resistance to DTT Reduction (10 mM) [1] | Resistance to Trypsin (500 U/ml) (trypsin) | Resistance to Pepsin (500 U/ml) (pepsin) |
| --- | --- | --- | --- |
| 40 (GSPDEYIERAKECCKKGDIQCCLRYFEESGDPNVMLICAFCP) [compound 40] | Low (A peptide classified as low indicates that the majority (over 75%) of the HPLC peak of the treated peptide disappeared as compared to the HPLC peak of the untreated peptide) |  |  |
| 42 (GSFGLYDNQCATSDACSAICKYWTGSGQGKCQNNQCRCY) [compound 42] | Low (A peptide classified as low indicates that the majority (over 75%) of the HPLC peak of the treated peptide disappeared as compared to the HPLC peak of the untreated peptide) |  |  |
| CC[C@H](C)[C@H](NC(=O)[C@H](CC(=O)O)NC(=O)[C@@H](NC(=O)[C@@H]1CCCN1C(=O)[C@H](CCCNC(=N)N)NC(=O)[C@H](CO)NC(=O)CN)[C@@H](C)O)C(=O)N[C@@H](CCCCN)C(=O)N[C@H]1CSSC[C@@H]2NC(=O)[C@H](CCCNC(=N)N)NC(=O)CNC(=O)[C@H](CC(N)=O)NC(=O)[C@H]([C@@H](C)O)NC(=O)[C@H](CCCCN)NC(=O)CNC(=O)[C@H](Cc3ccccc3)NC(=O)[C@H](CCCNC(=N)N)NC(=O)[C@H](CO)NC(=O)[C@H](CCCCN)NC(=O)[C@@H]3CSSC[C@@H](C(=O)N[C@@H](Cc4ccccc4)C(=O)O)NC(=O)[C@H](CC(=O)O)NC(=O)[C@H](CSSC[C@H](NC(=O)[C@H](CCC(N)=O)NC(=O)[C@H](Cc4ccc(O)cc4)NC(=O)[C@H](CO)NC(=O)[C@H](C)NC(=O)[C@H](CO)NC1=O)C(=O)N[C@@H](Cc1ccccc1)C(=O)N1CCC[C@H]1C(=O)N[C@@H](C(C)C)C(=O)N3)NC(=O)[C@H](CC(C)C)NC(=O)CNC(=O)[C@H](CC(N)=O)NC(=O)[C@H](C(C)C)NC2=O [compound 10] (H-GSRPTDIKCSASYQCFPVCKSRFGKTNGRCVNGLCDCF-OH; disulfide 9-30, 15-35, 19-37) |  | Low (A peptide classified as low indicates that the majority (over 75%) of the HPLC peak of the treated peptide disappeared as compared to the HPLC peak of the untreated peptide) | High (A peptide classified as high indicates that the majority (at least 75%) of the HPLC peak of the treated peptide is still present as compared to the HPLC peak of the untreated peptide) |
| CSCC[C@@H]1NC(=O)[C@@H]2CSSC[C@H](NC(=O)[C@H](CCCCN)NC(=O)[C@@H](NC(=O)[C@H](CC(=O)O)NC(=O)[C@@H](NC(=O)[C@H](Cc3ccccc3)NC(=O)[C@H](CCC(N)=O)NC(=O)[C@H](CO)NC(=O)CN)[C@@H](C)O)C(C)C)C(=O)N[C@@H]([C@@H](C)O)C(=O)NCC(=O)N[C@@H](CO)C(=O)N[C@@H](CCCCN)C(=O)N[C@@H](CCC(N)=O)C(=O)N[C@H]3CSSC[C@H](NC(=O)[C@H](CCCCN)NC(=O)CNC(=O)[C@H](CC(N)=O)NC1=O)C(=O)N[C@@H](CCCNC(=N)N)C(=O)N[C@H](C(=O)N[C@@H](Cc1ccc(O)cc1)C(=O)N[C@@H](CO)C(=O)O)CSSC[C@H](NC(=O)[C@H](C(C)C)NC(=O)[C@@H]1CCCN1C(=O)[C@H](Cc1c[nH]c4ccccc14)NC3=O)C(=O)N[C@@H](CCCCN)C(=O)N[C@@H](CCC(N)=O)C(=O)N[C@@H](CCSC)C(=O)N[C@@H](Cc1ccccc1)C(=O)NCC(=O)N[C@@H](CCCCN)C(=O)N1CCC[C@H]1C(=O)N[C@@H](CC(N)=O)C(=O)NCC(=O)N[C@@H](CCCCN)C(=O)N2 [compound 12] (H-GSQFTDVKCTGSKQCWPVCKQMFGKPNGKCMNGKCRCYS-OH; disulfide 9-30, 15-35, 19-37) |  | Moderate (A peptide classified as medium indicates that about half (between 25% and 75%) of the HPLC peak of the treated peptide disappeared as compared to the HPLC peak of the untreated peptide) | High (A peptide classified as high indicates that the majority (at least 75%) of the HPLC peak of the treated peptide is still present as compared to the HPLC peak of the untreated peptide) |
| CC[C@H](C)[C@@H]1NC(=O)[C@H](C)NC(=O)[C@H](CCC(=O)O)NC(=O)[C@H](CCCCN)NC(=O)[C@@H]2CSSC[C@@H](C(=O)N[C@@H](Cc3ccc(O)cc3)C(=O)N3CCC[C@H]3C(=O)O)NC(=O)[C@H](CCCCN)NC(=O)[C@@H]3CSSC[C@H](NC(=O)[C@H](CCC(=O)O)NC(=O)[C@@H]4CCCN4C(=O)[C@H](CO)NC(=O)CNC(=O)[C@H](CCCNC(=N)N)NC(=O)[C@@H](NC(=O)[C@H](CCCCN)NC(=O)[C@@H](NC(=O)[C@H](CC(N)=O)NC(=O)[C@@H](NC(=O)[C@H](Cc4ccccc4)NC(=O)[C@@H](NC(=O)[C@H](CO)NC(=O)CN)C(C)C)[C@@H](C)CC)C(C)C)CSSC[C@H](NC(=O)[C@H](CCCCN)NC(=O)CNC(=O)[C@H](C)NC(=O)[C@H](CO)NC(=O)[C@H](CCCCN)NC(=O)CNC1=O)C(=O)N[C@@H](CCSC)C(=O)N[C@@H](CC(N)=O)C(=O)NCC(=O)N[C@@H](CCCCN)C(=O)N3)C(=O)N[C@@H](CC(C)C)C(=O)N1CCC[C@H]1C(=O)N[C@@H](CCCCN)C(=O)N2 [compound 37] (H-GSVFINVKCRGSPECLPKCKEAIGKSAGKCMNGKCKCYP-OH; disulfide 9-30, 15-35, 19-37) |  | Low (A peptide classified as low indicates that the majority (over 75%) of the HPLC peak of the treated peptide disappeared as compared to the HPLC peak of the untreated peptide) | High (A peptide classified as high indicates that the majority (at least 75%) of the HPLC peak of the treated peptide is still present as compared to the HPLC peak of the untreated peptide) |
| CC[C@H](C)[C@@H]1NC(=O)[C@@H]2CSSC[C@H](NC(=O)[C@@H](NC(=O)[C@H](C)NC(=O)[C@H](CO)NC(=O)CN)C(C)C)C(=O)N[C@@H](CC(N)=O)C(=O)N[C@@H](CC(C)C)C(=O)N[C@@H](CCCCN)C(=O)N[C@@H](CCCNC(=N)N)C(=O)N[C@H]3CSSC[C@H](NC(=O)[C@H](CCCCN)NC(=O)[C@H](CC(=O)O)NC(=O)CNC1=O)C(=O)N[C@@H](CCC(=O)O)C(=O)N[C@H](C(=O)N[C@H](C(=O)N[C@@H](CCCCN)C(=O)N[C@@H](Cc1c[nH]cn1)C(=O)NCC(=O)O)C(C)C)CSSC[C@H](NC(=O)[C@H](CO)NC(=O)[C@H](CC(C)C)NC(=O)[C@H](CCC(N)=O)NC3=O)C(=O)N[C@@H](CCCNC(=N)N)C(=O)N[C@@H](CO)C(=O)N[C@@H](CC(C)C)C(=O)NCC(=O)N[C@@H](CC(C)C)C(=O)N[C@@H](CC(C)C)C(=O)NCC(=O)N[C@@H](CCCCN)C(=O)N2 [compound 8] (H-GSAVCNLKRCQLSCRSLGLLGKCIGDKCECVKHG-OH; disulfide 5-23, 10-28, 14-30) |  | Low (A peptide classified as low indicates that the majority (over 75%) of the HPLC peak of the treated peptide disappeared as compared to the HPLC peak of the untreated peptide) | High (A peptide classified as high indicates that the majority (at least 75%) of the HPLC peak of the treated peptide is still present as compared to the HPLC peak of the untreated peptide) |
